Source: PMC12454493, “Insight on novel sulfamoylphenyl pyrazole derivatives as anticancer carbonic anhydrase inhibitors” (Molecular Diversity, 2024)

Columns and labels:
Format in all cases: cell-based
[1] = system: CCRF-CEM; assay: NCI-60 one-dose SRB screen (Leukemia); conditions: Homo sapiens, single dose 10 µM, 48 h, read-out: Growth inhibition percent (GI %)
Method: (§1) The National Cancer Institute (NCI) Developmental Therapeutic Program (www.dtp.nci.nih.gov) selected the 20 novel synthesized compounds 4a-e, 5a-e, 6a-c, 9a-e, 10 and 11 to test for their anticancer activity at a single dose of 10 µM using SRB assay. […] Supplementary Data S3; Table S1 presents the detailed screening results of the most promising compounds. The preliminary screening’s detailed results for the remaining compounds are elucidated in the (Supplementary Data S3; Table S2).
(§2) The guidelines of the Drug Evaluation Branch’s protocol at the NCI in Bethesda served as the basis for the in vitro anticancer screening assays. at one dose 10 µM against a panel of 60 cancer cell lines. The human tumor cell lines used belonged to nine panels: leukemia, melanoma, lung, colon, CNS, ovarian, renal, prostate and breast cancers using the sulforhodamine B (SRB) assay in a 48 h drug exposure protocol.

[2] = system: HL-60(TB); assay: NCI-60 one-dose SRB screen (Leukemia); conditions: Homo sapiens, single dose 10 µM, 48 h, read-out: Growth inhibition percent (GI %)
Method: as §1, §2

[3] = system: K-562; assay: NCI-60 one-dose SRB screen (Leukemia); conditions: Homo sapiens, K562, single dose 10 µM, 48 h, read-out: Growth inhibition percent (GI %)
Method: as §1, §2

[4] = system: MOLT-4; assay: NCI-60 one-dose SRB screen (Leukemia); conditions: Homo sapiens, single dose 10 µM, 48 h, read-out: Growth inhibition percent (GI %)
Method: as §1, §2

[5] = system: RPMI-8226; assay: NCI-60 one-dose SRB screen (Leukemia); conditions: Homo sapiens, single dose 10 µM, 48 h, read-out: Growth inhibition percent (GI %)
Method: as §1, §2

[6] = system: SR; assay: NCI-60 one-dose SRB screen (Leukemia); conditions: Homo sapiens, single dose 10 µM, 48 h, read-out: Growth inhibition percent (GI %)
Method: as §1, §2

[7] = system: A549/ATCC; assay: NCI-60 one-dose SRB screen (Non-Small Cell Lung Cancer); conditions: Homo sapiens, single dose 10 µM, 48 h, read-out: Growth inhibition percent (GI %)
Method: as §1, §2

[8] = system: EKVX; assay: as above; conditions: Homo sapiens, single dose 10 µM, 48 h, read-out: Growth inhibition percent (GI %)
Method: as §1, §2

[9] = system: HOP-62; assay: as above; conditions: Homo sapiens, single dose 10 µM, 48 h, read-out: Growth inhibition percent (GI %)
Method: as §1, §2

[10] = system: HOP-92; assay: as above; conditions: Homo sapiens, single dose 10 µM, 48 h, read-out: Growth inhibition percent (GI %)
Method: as §1, §2

[11] = system: NCI-H226; assay: as above; conditions: Homo sapiens, single dose 10 µM, 48 h, read-out: Growth inhibition percent (GI %)
Method: as §1, §2

[12] = system: NCI-H23; assay: as above; conditions: Homo sapiens, single dose 10 µM, 48 h, read-out: Growth inhibition percent (GI %)
Method: as §1, §2

[13] = system: NCI-H322M; assay: as above; conditions: Homo sapiens, single dose 10 µM, 48 h, read-out: Growth inhibition percent (GI %)
Method: as §1, §2

[14] = system: NCI-H460; assay: as above; conditions: Homo sapiens, single dose 10 µM, 48 h, read-out: Growth inhibition percent (GI %)
Method: as §1, §2

[15] = system: NCI-H522; assay: as above; conditions: Homo sapiens, single dose 10 µM, 48 h, read-out: Growth inhibition percent (GI %)
Method: as §1, §2

[16] = system: COLO 205; assay: NCI-60 one-dose SRB screen (Colon Cancer); conditions: Homo sapiens, single dose 10 µM, 48 h, read-out: Growth inhibition percent (GI %)
Method: as §1, §2

[17] = system: HCC-2998; assay: NCI-60 one-dose SRB screen (Colon Cancer); conditions: Homo sapiens, single dose 10 µM, 48 h, read-out: Growth inhibition percent (GI %)
Method: as §1, §2

[18] = system: HCT-116; assay: NCI-60 one-dose SRB screen (Colon Cancer); conditions: Homo sapiens, single dose 10 µM, 48 h, read-out: Growth inhibition percent (GI %)
Method: as §1, §2

[19] = system: HCT-15; assay: NCI-60 one-dose SRB screen (Colon Cancer); conditions: Homo sapiens, single dose 10 µM, 48 h, read-out: Growth inhibition percent (GI %)
Method: as §1, §2

[20] = system: HT29; assay: NCI-60 one-dose SRB screen (Colon Cancer); conditions: Homo sapiens, HT-29, single dose 10 µM, 48 h, read-out: Growth inhibition percent (GI %)
Method: as §1, §2

[21] = system: KM12; assay: NCI-60 one-dose SRB screen (Colon Cancer); conditions: Homo sapiens, single dose 10 µM, 48 h, read-out: Growth inhibition percent (GI %)
Method: as §1, §2

[22] = system: SW-620; assay: NCI-60 one-dose SRB screen (Colon Cancer); conditions: Homo sapiens, single dose 10 µM, 48 h, read-out: Growth inhibition percent (GI %)
Method: as §1, §2

[23] = system: SF-268; assay: NCI-60 one-dose SRB screen (CNS Cancer); conditions: Homo sapiens, single dose 10 µM, 48 h, read-out: Growth inhibition percent (GI %)
Method: as §1, §2

[24] = system: SF-295; assay: NCI-60 one-dose SRB screen (CNS Cancer); conditions: Homo sapiens, single dose 10 µM, 48 h, read-out: Growth inhibition percent (GI %)
Method: as §1, §2

[25] = system: SF-539; assay: NCI-60 one-dose SRB screen (CNS Cancer); conditions: Homo sapiens, single dose 10 µM, 48 h, read-out: Growth inhibition percent (GI %)
Method: as §1, §2

[26] = system: SNB-19; assay: NCI-60 one-dose SRB screen (CNS Cancer); conditions: Homo sapiens, single dose 10 µM, 48 h, read-out: Growth inhibition percent (GI %)
Method: as §1, §2

[27] = system: SNB-75; assay: NCI-60 one-dose SRB screen (CNS Cancer); conditions: Homo sapiens, single dose 10 µM, 48 h, read-out: Growth inhibition percent (GI %)
Method: as §1, §2

[28] = system: U251; assay: NCI-60 one-dose SRB screen (CNS Cancer); conditions: Homo sapiens, U-251, single dose 10 µM, 48 h, read-out: Growth inhibition percent (GI %)
Method: as §1, §2

[29] = system: LOX IMVI; assay: NCI-60 one-dose SRB screen (Melanoma); conditions: Homo sapiens, single dose 10 µM, 48 h, read-out: Growth inhibition percent (GI %)
Method: as §1, §2

[30] = system: M14; assay: NCI-60 one-dose SRB screen (Melanoma); conditions: Homo sapiens, single dose 10 µM, 48 h, read-out: Growth inhibition percent (GI %)
Method: as §1, §2

## CCOC(=O)c1ccc(NC(=O)COC(=O)c2cn(-c3ccc(S(N)(=O)=O)cc3)nc2-c2ccccc2)cc1 [Compound 5a, 2-[(4-(Ethoxycarbonyl)phenyl)amino]-2-oxoethyl 3-phenyl-1-(4-sulfamoylphenyl)-1H-pyrazole-4-carboxylate]
[1]
  inhibition at 10 µM: 82%
[2]
  inhibition at 10 µM: 92.1%
[3]
  inhibition at 10 µM: 78.7%
[4]
  inhibition at 10 µM: 89%
[5]
  inhibition at 10 µM: 86.8%
[6]
  inhibition at 10 µM: 82.1%
[7]
  inhibition at 10 µM: 60.3%
[8]
  inhibition at 10 µM: 49%
[9]
  inhibition at 10 µM: 19.3%
[10]
  inhibition at 10 µM: 38.2%
[11]
  inhibition at 10 µM: 54.7%
[12]
  inhibition at 10 µM: 51.7%
[13]
  inhibition at 10 µM: 32.4%
[14]
  inhibition at 10 µM: 63.5%
[15]
  inhibition at 10 µM: 76.8%
[16]
  inhibition at 10 µM: 39.1%
[17]
  inhibition at 10 µM: 63.9%
[18]
  inhibition at 10 µM: 75.8%
[19]
  inhibition at 10 µM: 72.7%
[20]
  inhibition at 10 µM: 78.8%
[21]
  inhibition at 10 µM: 73.6%
[22]
  inhibition at 10 µM: 47.1%
[23]
  inhibition at 10 µM: 52.2%
[24]
  inhibition at 10 µM: 60%
[25]
  inhibition at 10 µM: 46%
[26]
  inhibition at 10 µM: 60.9%
[27]
  inhibition at 10 µM: 60.6%
[28]
  inhibition at 10 µM: 58.5%
[29]
  inhibition at 10 µM: 69.2%
[30]
  inhibition at 10 µM: 63.5%
